These are literature values, as cited in patent US20090312295A1, “Second line treatment of metastatic hormone refractory prostate cancer using satraplatin” (priority 2006, published 2009).

The test system of data set [1] is human tumor cell lines with different sensitivities to cisplatin.
For data set [2] the following is noted: sequential schedules.
In data set [3] the test system is LNCaP cells. As to conditions: 42 hours, 12 μM satraplatin or 0.7 μM JM-118.
The subject of data set [4] is prostate cancer cell lines PC-3, DU 145 and LNCaP.
Data set [5] relates to hormone refractory prostate cancer. As to conditions: symptomatic patients; mitoxantrone combined with prednisone versus prednisone alone.
In data set [6] the test system is hormone refractory carcinoma of the prostate.
The test system of data set [7] is hormone refractory prostate cancer. As to conditions: estramustine combined with either paclitaxel or docetaxel.
Data set [8] shares this test system. Particulars: first-line HRPC.
For data set [9] the test system is unchanged. Particulars: 120 mg/m^2 per day for 5 days every 4 weeks, single agent.
In data set [10] the test system is mismatch repair-proficient and mismatch repair-deficient cell lines.
In data set [11] the test system is H460 human non-small cell lung carcinoma (NSCLC). As to conditions: H460 xenografted in nude mice.
The subject of data set [12] is prostate carcinoma models. Particulars: in vivo.
For data set [13], the system named is human ovarian carcinoma xenograft models. Particulars: oral versus intravenous cisplatin and carboplatin.
Data set [14] has as its system human lung cancer cells.
Data set [15] deals with Schizosaccharomyces pombe. As to conditions: panel of 23 yeast strains, mutants in genes affecting radiation response.
Data set [16] relates to ovarian cancer carcinoma cell lines. Particulars: panel of ovarian carcinoma cell lines.

For the compound `N.NC1CCCCC1.[Cl-].[Cl-].[Pt+2]` [JM118, reference compound], the “circumvention of resistance to cisplatin” value in data set [1] was “can partially circumvent intrinsic and acquired resistance to cisplatin”. The “in vitro anticancer activity in combination with erlotinib, paclitaxel or 5-FU” value in data set [2] is listed as “synergistic in vitro anticancer activity”. For the same compound, in data set [3], the “PSA mRNA transcription” value is reported as 90 % of control, the cell number was 61 % of control and the “secreted PSA protein level” value is reported as 61 % of control. Besides, the “result of treatment of prostate cancer cells” value in data set [4] is reported as “tumor cell kill”.
On to `O=C1c2c(O)ccc(O)c2C(=O)c2c(NCCNCCO)ccc(NCCNCCO)c21` [Mitoxantrone], for which, in data set [5], the “palliative response using pain response criteria” value is on record as 29%.
For `N.N.[Cl][Pt][Cl]` [cisplatin], the “response rates to single agent” value in data set [6] (measurable disease, several trials) is on record as “generally low or poor”. Moreover, the “efficacy in patients with metastatic prostatic carcinoma” value in [6] (phase II trial (Qazi & Khandekar)) is “not effective”.
Turning to `C[C@]12CC[C@@H]3c4ccc(OC(=O)N(CCCl)CCCl)cc4CC[C@H]3[C@@H]1CC[C@@H]2O` [estramustine, Estramustine], in [7], the “patients with decrease of >50% in serum PSA levels” value was more than 50% and the tolerability result was “well tolerated”.
In the case of `C[C@]12C=CC(=O)C=C1CC[C@@H]1[C@@H]2C(=O)C[C@@]2(C)[C@H]1CC[C@]2(O)C(=O)CO` [prednisone alone, prednisone], in data set [8], the Progression-free survival is given as 2.5 months and the “patients with >50% decrease in prostate specific antigen (PSA)” value was 8.7%. Besides, the Median overall survival in data set [8] (50 randomized patients) is 11.9 months. Further, in data set [5], the “palliative response using pain response criteria” value was 12%.
Regarding `CC(=O)[O][Pt]([NH2])([Cl])([Cl])([NH]C1CCCCC1)[O]C(C)=O` [satraplatin, bis(acetato) ammine dichloro (cyclohexylamine) platinum (IV)], in [1], the “circumvention of resistance to cisplatin” value is “can partially circumvent intrinsic and acquired resistance to cisplatin”. In data set [1] (equimolar basis), the “platinum-DNA adduct levels compared to cisplatin” value is “lower levels of platinum-DNA adducts”. Also, in [9], the “activity in HRPC” value is recorded as “moderate activity” and the toxicity entry was “significant treatment-related toxicities”. In [10], the “sensitivity, mismatch repair-proficient versus -deficient cell lines” value is “no difference in sensitivity”. For the same compound, in [11], the “antitumor activity of combination with docetaxel” value is on record as “synergistic antitumor activity” and the “antitumor activity of combination with paclitaxel” value is reported as “antitumor activity”. In data set [3], the “PSA mRNA transcription” value is reported as 90 % of control, the cell number was 56 % of control and the “secreted PSA protein level” value is 58 % of control. Further, in data set [12], the “antitumor activity of combination with docetaxel” value is recorded as “synergistic antitumor activity” and the “antitumor activity of combination with paclitaxel” value was “synergistic antitumor activity”. Besides, in data set [13], the “efficacy of orally administered satraplatin” value is “comparable to that of cisplatin and carboplatin administered intravenously”. For the same compound, the radiopotentiation result in data set [14] was “can potentiate the effects of radiation”. For the same compound, the “result of treatment of prostate cancer cells” value in [4] was “tumor cell kill”. Also, in data set [4] (androgen-insensitive PC-3 and DU 145 versus androgen-sensitive LNCaP), the “sensitivity of cell lines to satraplatin” value was “more sensitive”. Further, the “change in sensitivity of mutants” value in [15] is on record as “none of the mutants demonstrated an appreciable change in sensitivity”. In addition, the “cytotoxicity compared with cisplatin” value in data set [16] is listed as “significantly more cytotoxic than cisplatin”.
